Measured values: ChEMBL document CHEMBL2086220, “Selective cytotoxicity and apoptosis induction in glioma cell lines by 5-oxygenated-6,7-methylenedioxycoumarins from Pterocaulon species” (Eur J Med Chem, 2012)
Activity calls are given as the source filed them. No cut-off for these calls is given here.

Legend:
C6 [1] = assay: Cytotoxicity against rat C6 cells incubated for 48 hrs by MTT assay; format: functional, cell-based
[2] = Cytotoxicity against human U138MG cells incubated for 48 hrs by MTT assay; format: functional, cell-based, U138-MG
C6 [3] = assay: Induction of apoptotic cell death in rat C6 cells at 25 uM incubated for 24 hrs by Annexin V/PI staining based flow cytometry; format: functional
C6 [4] = assay: Induction of apoptotic cell death in rat C6 cells at 50 uM incubated for 24 hrs by Annexin V/PI staining based flow cytometry; format: functional
C6 [5] = assay: Induction of early apoptotic cell death in rat C6 cells at 100 uM incubated for 24 hrs by Annexin V/PI staining based flow cytometry; format: functional
Hippocampus = assay: Toxicity in Wistar rat organotypic hippocampal cultures at 100 uM incubated for 48 hrs by propidium iodide incorporation assay; format: tissue-based
[6] = Rattus norvegicus, C6, 48 h, read-out: IC50
[7] = Homo sapiens, U138-MG, 48 h, read-out: IC50

| Compound | IC50 (C6 [1]; [6]) | IC50 [2, 7] | IC50 (C6 [1]; c6) | IC50 ([2]; u138-mg) | further results |
| --- | --- | --- | --- | --- | --- |
| CC(C)=CCOc1c2c(cc3oc(=O)ccc13)OCO2 | 77.5 µM | 65.4 µM |  |  |  |
| COc1c2c(cc3oc(=O)ccc13)OCO2 | 34.6 µM | 31.6 µM |  |  | Activity (C6 [3]): inactive; Activity (C6 [4]): inactive; Activity (C6 [5]): Active; Activity (Hippocampus): Non-toxic |
| CC(C)(O)C(O)COc1c2c(cc3oc(=O)ccc13)OCO2 (stereo not given) | 76.4 µM | 75.6 µM |  |  |  |
| O=c1ccc2ccccc2o1 [COUMARIN] |  |  | Not Active | Not Active |  |
| O=c1ccc2cc(O)c(O)cc2o1 [ESCULETIN] |  |  | Not Active | Not Active |  |
| O=c1ccc2cc(O[C@@H]3O[C@H](CO)[C@@H](O)[C@H](O)[C@H]3O)c(O)cc2o1 [ESCULIN] |  |  | Not Active | Not Active |  |
| Cn1nnc2c(C(N)=O)ncn2c1=O [TEMOZOLOMIDE] | 34 µM | 26 µM |  |  |  |
| O=c1ccc2ccc(O)cc2o1 [UMBELLIFERONE] |  |  | Not Active | Not Active |  |
